Laboratory results reported in patent publication US20180346446A1, “IRE1 SMALL MOLECULE INHIBITORS” (QUENTIS THERAPEUTICS, INC., priority 2017, published 2018).

Legend:
[1] = Microsome stability assay, mouse liver microsomes; type: in vitro ADME; details: formic acid salt
Description: (§1) The formic acid salt of Compound 3 was tested under the microsome stability assay outlined below. Test compounds were incubated at 37° C. with liver microsomes (pooled from multiple donors) at […] in the presence of a NADPH regenerating system at 0.5 mg/ml microsomal protein. Positive controls included Testosterone (3A4 substrate), Propafenone (2D6) and Diclofenac (2C9), which were incubated with microsomes in the presence of an NADPH regenerating system. At time points (0, 5, 10, 20, 30 and 60 minutes), samples were removed and immediately mixed with cold acetonitrile containing internal standard (IS). Test compounds incubated with microsomes without the NADPH regenerating system for 60 min was also included. A single point for each test condition (n=1) was obtained, and samples were analyzed by LC/MS/MS. Disappearance of the test compound was assessed based on peak area ratios of analyte/IS (no standard curve).

[2] = test system: IRE1a-mediated XBP1 splicing; assay: Inhibition of IRE1a signaling in cell types of the tumor microenvironment (metastatic ovarian cancer mice); type: in vivo; details: mice with metastatic ovarian cancer, 11 mg/kg, 12 hours, tumor cells, DC, CD4+ and CD8+ T cells from ascites
Description: A syngeneic mouse model for metastatic, orthotopic ovarian cancer was used to analyze the in vivo effects of compounds described herein. Assay conditions were similar to those described in Example 11, administering compound 3 for comparison against controls. […] After 12 hours, the ascites were drained and FACS was used to purify the cells into four populations: tumor cells, dendritic cells (DC), CD4+ T cells, and CD8+ T cells. Then, PCR and qPCR was used to quantify spliced Xbp1 transcripts and total Xbp1 transcripts. […] Compound 3 can therefore inhibit IRE1a-mediated XBP1 splicing in vivo in tumor cells and key immune cell types found within the tumor microenvironment.

[3] = test system: IRE1a-mediated XBP1 splicing; assay: Suppression of XBP1 splicing in liver of tunicamycin-injected mice; type: in vivo; details: 0.25 mg/kg tunicamycin, 10 mg/kg compound intraperitoneal, 4 hours, RT-qPCR
Description: Mice were injected with 0.25 mg/kg tunicamycin dissolved in DMSO: PBS at a ratio of 1:3. After 2 hours, the mice were injected with 10 mg/kg of Compound 3 dissolved in water or water alone as a vehicle control. After an additional 4 hours, the animals were euthanized, livers dissected out, and 2-3 mm^3 liver pieces are flash frozen on dry ice. Liver pieces were then thawed in Trizol on ice, homogenized for 3 minutes with a bead mill at medium-high speed. RNA was then extracted from the Trizol solution according to the manufacturer's recommendation. Gene expression analysis was also performed via Reverse Transcription quantitative PCR (RT-qPCR) using a Stratagene Mx3005 instrument and SYBR green I (Life Technologies). Gene expression was measured of the spliced Xbp1s transcript, a primer set measuring all Xbp1 transcripts, Xbp1s target genes including Sec24d and general ER stress response markers Hspa5 (BiP) and Ddit3 (CHOP).

[4] = Microsome stability assay, human liver microsomes; type: in vitro ADME; details: formic acid salt
Description: as §1

## CCc1cc(-c2ccc(NS(=O)(=O)c3ccccc3Cl)cc2C)cc2cnc(N[C@H]3CC[C@H](N)CC3)nc12 [Compound 3, N-(4-(2-(((1r,4r)-4-aminocyclohexyl)amino)-8-ethylquinazolin-6-yl)-3-methylphenyl)-2-chlorobenzenesulfonamide]
[1]; 37° C., NADPH regenerating system
  Mouse Liver Microsome CI: 31.9 µL/min/mg
[1]; 60 min
  Mouse Liver Microsome Remaining at 60 min: 41%
[1]; mouse, liver microsomes (pooled from multiple donors), 37° C., 0.5 mg/ml microsomal protein, NADPH regenerating system, read-out: Mouse Liver Microsome T1/2
  half-life at 1 NM: 43.5 min
[2]
  splicing ratio of XBP1 (spliced Xbp1 transcripts divided by total Xbp1 transcripts) compared to vehicle-treated mice: markedly reduced
[3]
  suppression of IRE1a-mediated XBP1 splicing in vivo: potently suppresses
[4]; 60 min
  HLM Remaining at 60 min: 44%
[4]; human liver microsomes, 37° C., NADPH regenerating system
  Human CI: 29.2 µL/min/mg
[4]; human, liver microsomes (pooled from multiple donors), 37° C., 0.5 mg/ml microsomal protein, NADPH regenerating system, read-out: Human Liver Microsome (HLM) T1/2
  half-life at 1 NM: 47.5 min
